Laboratory results published in EPA's ToxValDB 9.5.

System: Rattus norvegicus
[1] = acute, duration: 1 days, dermal, M/F, CD, Dermal: Mild skin irritation
[2] = chronic, duration: 2 years, oral, F, Sprague-Dawley, Body Weight: […] lower terminal body weight
[3] = chronic, duration: 2 years, oral, M/F, Sprague-Dawley, Hepatic: Increased serum ALT and AST at ?[…] / hepatocellular hypertrophy at 15 mg/kg/day / hepatocellular necrosis at 15 mg/kg/day only …
[4] = chronic, duration: 2 years, oral, M, Sprague-Dawley, Reproductive: Vascular mineralization in the testes
[5] = developmental, duration: 15 hours, inhalation, F, Sprague-Dawley, Developmental: 10% decreased neonatal body weight on PND 1
[6] = reproduction developmental, duration: 90 days, oral, M/F, Sprague-Dawley, Body Weight: >11% reduced body weight
[7] = reproduction developmental, duration: 90 days, oral, M/F, Sprague-Dawley, Hepatic: Increased absolute and relative liver weight in P-generation (36%) and F1-generation (30%) males / hepatocellular hypertrophy and …
[8] = short-term, duration: 2 weeks, inhalation, M, CD, Body Weight: 7% lower body weight on exposure day 5
[9] = short-term, duration: 14 days, oral, M, Body Weight: 24% decrease in overall body weight gain
[10] = short-term, duration: 14 days, oral, M, CD, Body Weight: 14% lower final body weight
[11] = short-term, duration: 14 days, oral, M, CD, Body Weight: 14% reduction in final body weight
[12] = short-term, duration: 14 days, oral, M, CD, Reproductive: 2-fold increase in serum estradiol
[13] = short-term, duration: 14 days, oral, M, CD, Reproductive: 63% increase in serum estradiol

For `O=C([O-])C(F)(F)C(F)(F)C(F)(F)C(F)(F)C(F)(F)C(F)(F)C(F)(F)F.[NH4+]` [Ammonium perfluorooctanoate], the NOAEL (acute, duration: 15 hours, inhalation, F, Sprague-Dawley, Body Weight: 12% decrease weight gain on GDs 6-15) was 1 mg/m3, the LOAEL (acute, duration: 15 hours, inhalation, F, Sprague-Dawley, Death: 3/12 deaths on GDs 12, 13, and 17) was 25 mg/m3 and the NOAEL (acute, duration: 15 hours, inhalation, F, Sprague-Dawley, Hepatic: 18% increase absolute liver weight at 25 mg/m3) was 25 mg/m3. For the same compound, the LOAEL (acute, duration: 1 days, dermal, M/F, CD, Body Weight: 5-7% transient weight loss) was 3000 mg/kg-day, the LOAEL [1] was 5000 mg/kg-day and the NOAEL [1] was 3000 mg/kg-day. The LOAEL (acute, duration: 1 days, dermal, M, CD, Death: 14-day LD50) was 7000 mg/kg-day, the LOAEL (acute, duration: 1 days, oral, F, albino, Death: LD50) was 430 mg/kg-day and the LOAEL (acute, duration: 1 days, oral, M, albino, Death: LD50) was 680 mg/kg-day. For the same compound, the LOAEL (chronic, duration: 1 years, oral, M, CD, Body Weight: >10% reduced weight gain + Reproductive: Significant increase in serum estradiol at 1, 3, 6, 9, and 12 months (~100-180%) / …) was 13.6 mg/kg-day, the NOAEL (chronic, duration: 1 years, oral, M, CD, Hepatic: Increased relative liver weight) was 13.6 mg/kg-day and the NOAEL (chronic, duration: 2 years, oral, F, Sprague-Dawley) was 15 mg/kg-day. It also gave an LOAEL [2] of 15 mg/kg-day, an NOAEL [2] of 1.5 mg/kg-day and an NOAEL (chronic, duration: 2 years, oral, M/F, Sprague-Dawley) of 15 mg/kg-day. For the same compound, the LOAEL [3] was 15 mg/kg-day, the NOAEL [3] was 1.5 mg/kg-day and the LOAEL (chronic, duration: 2 years, oral, M/F, Sprague-Dawley, Other Cancer: CEL: testicular Leydig cell adenomas) was 15 mg/kg-day. It also gave an LOAEL (chronic, duration: 2 years, oral, M, CD, Body Weight: >10% reduction in weight gain most of the study + Other: Increased incidence of acinar cell + Reproductive: Increased incidence…) of 13.6 mg/kg-day, an LOAEL (chronic, duration: 2 years, oral, M, CD, Cancer: CEL: testicular Leydig cell adenomas and pancreatic acinar cell adenomas) of 13.6 mg/kg-day and an NOAEL (chronic, duration: 2 years, oral, M, CD, Hepatic: Increased relative liver weight) of 13.6 mg/kg-day. It also gave an LOAEL (chronic, duration: 2 years, oral, M, Sprague-Dawley, Other Noncancer: Inflammation of the salivary gland) of 1.5 mg/kg-day, an LOAEL [4] of 15 mg/kg-day and an NOAEL [4] of 1.5 mg/kg-day. The LOAEL [5] was 25 mg/m3, the NOAEL [5] was 10 mg/m3 and the NOAEL (developmental, duration: 10 days, oral, F, Sprague-Dawley, Developmental: No alterations in fetal body weight or teratology) was 100 mg/kg-day. It also gave an LOAEL (developmental, duration: 90 days, oral, M/F, Sprague-Dawley, Developmental: Increased number of dead pups on PNDs 6-8) of 30 mg/kg-day, an NOAEL (developmental, duration: 90 days, oral, M/F, Sprague-Dawley, Developmental: Increased number of dead pups on PNDs 6-8 + Endocrine: Vacuolation of zona glomerulosa of adrenal gland) of 10 mg/kg-day and an LOAEL (reproduction developmental, duration: 10 days, oral, F, Sprague-Dawley, Body Weight: 33% reduced maternal body weight gain) of 100 mg/kg-day. For the same compound, the LOAEL [6] was 10 mg/kg-day, the NOAEL [6] was 3 mg/kg-day and the LOAEL (reproduction developmental, duration: 90 days, oral, M/F, Sprague-Dawley, Endocrine: Vacuolation of zona glomerulosa of adrenal gland) was 30 mg/kg-day. It also gave an LOAEL [7] of 3 mg/kg-day, an NOAEL [7] of 1 mg/kg-day and an NOAEL (reproduction developmental, duration: 90 days, oral, M/F, Sprague-Dawley, Reproductive: No alteration in reproductive performance in P0 or F1 generation) of 30 mg/kg-day. The NOAEL (short-term, duration: 2 weeks, dermal, M, CD) was 2000 mg/kg-day, the LOAEL (short-term, duration: 2 weeks, dermal, M, CD, Body Weight: 14% weight loss) was 200 mg/kg-day and the NOAEL (short-term, duration: 2 weeks, dermal, M, CD, Body Weight: 14% weight loss + Dermal: Skin irritation / acute necrotizing dermatitis) was 20 mg/kg-day. The LOAEL (short-term, duration: 2 weeks, dermal, M, CD, Hepatic: Foci of coagulative necrosis) was 20 mg/kg-day, the LOAEL [8] was 84 mg/m3 and the NOAEL [8] was 7.6 mg/m3. The NOAEL (short-term, duration: 2 weeks, inhalation, M, CD, Hepatic: Increased absolute and relative liver weight / hepatocellular hypertrophy at 7.6 mg/m3 + Neurological: No histological alterations…) was 84 mg/m3, the LOAEL (short-term, duration: 7 days, oral, M, Sprague-Dawley, Body Weight: 17% weight loss) was 50 mg/kg-day and the NOAEL (short-term, duration: 7 days, oral, M, Sprague-Dawley, Hepatic: 2-fold increase in relative and absolute liver weight) was 50 mg/kg-day. The NOAEL (short-term, duration: 7 days, oral, M, Sprague-Dawley, Hepatic: Increased liver weight, decreased serum cholesterol, triglyceride, hepatocellular hypertrophy at ?18 mg/kg/day) was 23 mg/kg-day, the NOAEL (short-term, duration: 7 days, oral, M, Wistar, Hepatic: 66% increase in absolute liver weight) was 16 mg/kg-day and the LOAEL [9] was 3 mg/kg-day. For the same compound, the NOAEL [9] was 1 mg/kg-day, the LOAEL [10] was 20 mg/kg-day and the NOAEL [10] was 2 mg/kg-day. It also gave an LOAEL [11] of 25 mg/kg-day, an NOAEL [11] of 10 mg/kg-day and an NOAEL (short-term, duration: 14 days, oral, M, CD, Hepatic: 34% increase in absolute and relative liver we) of 40 mg/kg-day. The NOAEL (short-term, duration: 14 days, oral, M, CD, Hepatic: 46% increase in relative liver weight at ?10 mg/kg/day) was 50 mg/kg-day, the LOAEL [12] was 2 mg/kg-day and the NOAEL [12] was 0.2 mg/kg-day. The LOAEL [13] was 10 mg/kg-day, the NOAEL [13] was 1 mg/kg-day and the LOAEL (short-term, duration: 14 days, oral, M, CD, Reproductive: 184% increase in serum estradiol) was 25 mg/kg-day. The NOAEL (short-term, duration: 14 days, oral, M, Hepatic: Decreased serum cholesterol levels at ?0.3 mg/kg/day) was 30 mg/kg-day, the NOAEL (short-term, duration: 14 days, oral, M, Sprague-Dawley, Hepatic: 2-fold increased mean relative liver weight at 50 mg/kg/day + Immunotoxicological: No alterations in spleen weight or splenocyte …) was 50 mg/kg-day and the LOAEL (short-term, duration: 28 days, oral, F, albino, Death: before end of 1st week of study) was 1130 mg/kg-day. It also gave an NOAEL (short-term, duration: 28 days, oral, M, CD) of 29 mg/kg-day.
